Experimental data: patent US11197878B2, “Anti-inflammatory composition including novel quercetin-based compound” (AMOREPACIFIC CORPORATION, priority 2017, dated 2021)

Tests used:
PGE2 (Prostaglandin E2) = assay: Test for inhibiting generation of PGE2 in H2O2-stimulated fibroblast (ELISA); type: cell-based
Experimental: (§1) Fibroblast (PromoCell, Germany) was inoculated in a 6-well culturing plate at a concentration of 1×10^5 cells, and cultured in a 5% CO2 incubator at 37° C. for 24 hours. The well was treated with H2O2 500 μM and stimulated for 24 hours, and then were treated with quercetin3-O-[3-O″-(E)-p-coumaroyl][β-D-glucopyranosyl-(1→3)-O-α-L-rhamnopyranosyl-(1→6)-O-β-D-glucopyranoside] (‘New Material 31’) and quercetin3-O-[3-O″-(E)-p-coumaroyl][α-L-rhamnopyranosyl-(1→6)-O-β-D-glucopyranoside]) (‘New Material 32’) at a concentration of 100 μg/ml, respectively, and reacted for 48 hours. After the reaction was finished, the culture medium was collected and the ELISA analysis was performed. Herein, α-bisabolol, which is the material typically used as an anti-inflammatory agent and abirritant, was used as a control. As PGE2, a kit of Assay Design® was used, and as IL-6 and IL-8, a kit of Endogen® was used, and the test was carried out according to the methods prescribed in the manuals of the respective companies. (‘31’ refers to New Material 31, and ‘32’ refers to New Material 32) Inhibition effect={1−(test sample−control)/(H2O2−control)}×100 <Equation 1>

IL-8 (Interleukin 8) = assay: Test for inhibiting generation of IL-8 in H2O2-stimulated fibroblast (ELISA); type: cell-based
Experimental: as §1

skin = assay: Test for skin accumulated stimulus, HRIPT (Human repeated insult patch tests); type: in vivo; details: for Number of examinees who exhibited ±, +, or ++ reactivity, 1st: 1st patch; for Number of examinees who exhibited ±, +, or ++ reactivity, 2nd: 2nd patch; for Number of examinees who exhibited ±, +, or ++ reactivity, 3rd: 3rd patch; for Number of examinees who exhibited ±, +, or ++ reactivity, 4th: 4th patch; for Number of examinees who exhibited ±, +, or ++ reactivity, 5th: 5th patch; for Number of examinees who exhibited ±, +, or ++ reactivity, 6th: 6th patch; for Number of examinees who exhibited ±, +, or ++ reactivity, 7th: 7th patch; for Number of examinees who exhibited ±, +, or ++ reactivity, 8th: 8th patch; for Number of examinees who exhibited ±, +, or ++ reactivity, 9th: 9th patch
Experimental: HRIPT (Human repeated insult patch tests) was conducted in order to identify skin accumulated stimulus of quercetin3-O-[3-O″-(E)-p-coumaroyl][β-D-glucopyranosyl-(1→3)-O-α-L-rhamnopyranosyl-(1→6)-O-β-D-glucopyranoside] and quercetin3-O-[3-O″-(E)-p-coumaroyl][α-L-rhamnopyranosyl-(1→6)-O-β-D-glucopyranoside] and to calculate the concentration range that can be used in skin. Specifically, 15 healthy adult examinees were randomly selected, and test compositions in which the compounds were respectively comprised in an amount of 0.5 wt. %, 1 wt. %, and 3 wt. % (the compositions for skin, comprising an emulsifying agent, a stabilizer, purified water, etc. in addition to the compounds) were dropped in the amount of 20 μl per chamber (IQ chamber, Epitest Ltd, Finland), and patched on the right site of the upper back of the examinees, and then, after 24 hours, the patch was replaced with a new patch. A total of 9 patches were conducted, three times a week for total 3 weeks, in such manner, the skin reactions before and after patch were examined every time, and the skin reactions until 48 hours after removing the final patch were observed, and the average reactivity was observed. The skin reaction was determined according to the criteria of International Contact Dermatitis Research Group (ICDRG). In the above table, “New Material 31” refers to quercetin3-O-[3-O″-(E)-p-coumaroyl][β-D-glucopyranosyl-(1→3)-O-α-L-rhamnopyranosyl-(1→6)-O-β-D-glucopyranoside], and “New Material 32” refers to quercetin3-O-[3-O″-(E)-p-coumaroyl][α-L-rhamnopyranosyl-(1→6)-O-β-D-glucopyranoside].

[1] = fibroblast culture medium, H2O2 500 μM 24 hours, then test material (31, 32: 100 μg/ml) 48 hours, ELISA

C[C@@H]1O[C@@H](OC[C@H]2O[C@@H](Oc3c(-c4ccc(O)c(O)c4)oc4cc(O)cc(O)c4c3=O)[C@H](O)[C@@H](OC(=O)/C=C/c3ccc(O)cc3)[C@@H]2O)[C@H](O)[C@H](O)[C@H]1O [New Material 32, quercetin3-O-[3-O″-(E)-p-coumaroyl][α-L-rhamnopyranosyl-(1→6)-O-β-D-glucopyranoside]]
inhibition at 100 µg/mL (PGE2 (Prostaglandin E2); Fibroblast, 100 μg/ml, {1−(test sample−control)/(H2O2−control)}×100, read-out: Inhibition effect according to Equation 1, PGE2): 48.3% | PGE2 (PGE2 (Prostaglandin E2); [1]): 280 pg/mL | inhibition at 100 µg/mL (IL-8 (Interleukin 8); Fibroblast, 100 μg/ml, {1−(test sample−control)/(H2O2−control)}×100, read-out: Inhibition effect according to Equation 1, IL-8): 61.1% | IL-8 (IL-8 (Interleukin 8); [1]): 235 pg/mL | Number of examinees who exhibited ±, +, or ++ reactivity, 1st (skin; 0.5 wt. %, line 1 of 3 (±)): 0 number | Number of examinees who exhibited ±, +, or ++ reactivity, 1st (skin; 0.5 wt. %, line 2 of 3 (+)): 0 number | Number of examinees who exhibited ±, +, or ++ reactivity, 1st (skin; 0.5 wt. %, line 3 of 3 (++)): 0 number | Number of examinees who exhibited ±, +, or ++ reactivity, 2nd (skin; 0.5 wt. %, line 1 of 3 (±)): 0 number | Number of examinees who exhibited ±, +, or ++ reactivity, 2nd (skin; 0.5 wt. %, line 2 of 3 (+)): 0 number | Number of examinees who exhibited ±, +, or ++ reactivity, 2nd (skin; 0.5 wt. %, line 3 of 3 (++)): 0 number | Number of examinees who exhibited ±, +, or ++ reactivity, 3rd (skin; 0.5 wt. %, line 1 of 3 (±)): 0 number | Number of examinees who exhibited ±, +, or ++ reactivity, 3rd (skin; 0.5 wt. %, line 2 of 3 (+)): 0 number | Number of examinees who exhibited ±, +, or ++ reactivity, 3rd (skin; 0.5 wt. %, line 3 of 3 (++)): 0 number | Number of examinees who exhibited ±, +, or ++ reactivity, 4th (skin; 0.5 wt. %, line 1 of 3 (±)): 0 number | Number of examinees who exhibited ±, +, or ++ reactivity, 4th (skin; 0.5 wt. %, line 2 of 3 (+)): 0 number | Number of examinees who exhibited ±, +, or ++ reactivity, 4th (skin; 0.5 wt. %, line 3 of 3 (++)): 0 number | Number of examinees who exhibited ±, +, or ++ reactivity, 5th (skin; 0.5 wt. %, line 1 of 3 (±)): 0 number | Number of examinees who exhibited ±, +, or ++ reactivity, 5th (skin; 0.5 wt. %, line 2 of 3 (+)): 0 number | Number of examinees who exhibited ±, +, or ++ reactivity, 5th (skin; 0.5 wt. %, line 3 of 3 (++)): 0 number | Number of examinees who exhibited ±, +, or ++ reactivity, 6th (skin; 0.5 wt. %, line 1 of 3 (±)): 0 number | Number of examinees who exhibited ±, +, or ++ reactivity, 6th (skin; 0.5 wt. %, line 2 of 3 (+)): 0 number | Number of examinees who exhibited ±, +, or ++ reactivity, 6th (skin; 0.5 wt. %, line 3 of 3 (++)): 0 number | Number of examinees who exhibited ±, +, or ++ reactivity, 7th (skin; 0.5 wt. %, line 1 of 3 (±)): 0 number | Number of examinees who exhibited ±, +, or ++ reactivity, 7th (skin; 0.5 wt. %, line 2 of 3 (+)): 0 number | Number of examinees who exhibited ±, +, or ++ reactivity, 7th (skin; 0.5 wt. %, line 3 of 3 (++)): 0 number | Number of examinees who exhibited ±, +, or ++ reactivity, 8th (skin; 0.5 wt. %, line 1 of 3 (±)): 0 number | Number of examinees who exhibited ±, +, or ++ reactivity, 8th (skin; 0.5 wt. %, line 2 of 3 (+)): 0 number | Number of examinees who exhibited ±, +, or ++ reactivity, 8th (skin; 0.5 wt. %, line 3 of 3 (++)): 0 number | average reactivity (skin; 0.5 wt. %, 9 patches over 3 weeks, 15 examinees, less than 3 is considered a stable composition): 0 | Number of examinees who exhibited ±, +, or ++ reactivity, 9th (skin; 0.5 wt. %, line 1 of 3 (±)): 0 number | Number of examinees who exhibited ±, +, or ++ reactivity, 9th (skin; 0.5 wt. %, line 2 of 3 (+)): 0 number | Number of examinees who exhibited ±, +, or ++ reactivity, 9th (skin; 0.5 wt. %, line 3 of 3 (++)): 0 number | Number of examinees who exhibited ±, +, or ++ reactivity, 1st (skin; 1 wt. %, line 1 of 3 (±)): 0 number | Number of examinees who exhibited ±, +, or ++ reactivity, 1st (skin; 1 wt. %, line 2 of 3 (+)): 0 number | Number of examinees who exhibited ±, +, or ++ reactivity, 1st (skin; 1 wt. %, line 3 of 3 (++)): 0 number | Number of examinees who exhibited ±, +, or ++ reactivity, 2nd (skin; 1 wt. %, line 1 of 3 (±)): 0 number | Number of examinees who exhibited ±, +, or ++ reactivity, 2nd (skin; 1 wt. %, line 2 of 3 (+)): 0 number | Number of examinees who exhibited ±, +, or ++ reactivity, 2nd (skin; 1 wt. %, line 3 of 3 (++)): 0 number | Number of examinees who exhibited ±, +, or ++ reactivity, 3rd (skin; 1 wt. %, line 1 of 3 (±)): 0 number | Number of examinees who exhibited ±, +, or ++ reactivity, 3rd (skin; 1 wt. %, line 2 of 3 (+)): 0 number | Number of examinees who exhibited ±, +, or ++ reactivity, 3rd (skin; 1 wt. %, line 3 of 3 (++)): 0 number | Number of examinees who exhibited ±, +, or ++ reactivity, 4th (skin; 1 wt. %, line 1 of 3 (±)): 0 number | Number of examinees who exhibited ±, +, or ++ reactivity, 4th (skin; 1 wt. %, line 2 of 3 (+)): 0 number | Number of examinees who exhibited ±, +, or ++ reactivity, 4th (skin; 1 wt. %, line 3 of 3 (++)): 0 number
